Values after ≈ are worked out from the molar mass of the structure shown. Where a SMILES comes first, the peptide text is derived from it. Bridges are numbered along the chain shown (N, C = ends). Roman numbers before positions name the chains, in order.
Legend:
physchem = format: physicochemical
Description: An exemplary cell culture medium containing the dipeptides alanyl tyrosine (AlaTyr) and alanyl cysteine (which forms a disulfide dimer, [AlaCys]2) was prepared. Specifically, the dipeptides, alanyl tyrosine and alanyl cysteine were added as dry powder to an aqueous basal cell culture medium containing glucose and a mixture of concentrated amino acids and mixed until dissolved. […].

[1] = 25° C., by way of comparison; cited from earlier work

SMILES | solubility (physchem) | solubility in water [1]
C[C@H](N)C(=O)N[C@@H](Cc1ccc(O)cc1)C(=O)O [AlaTyr, alanyl tyrosine] (H-Ala-Tyr-OH) | ~15.4 mg/mL (≈ 61 mM) | –
N[C@@H](CSSC[C@H](N)C(=O)O)C(=O)O [L-Cystine] | – | about 0.11 g/L
C[C@H](N)C(=O)N[C@@H](CSSC[C@H](NC(=O)[C@H](C)N)C(=O)O)C(=O)O [[AlaCys]2 dimer, N,N′-di-L-Alanyl-L-Cystine] (I: H-Ala-Cys-OH / II: H-Ala-Cys-OH; disulfide I:2-II:2) | ~8.7 mg/mL (≈ 22.7 mM) | –

Source: patent US12529029B2, “Cell culture medium comprising small peptides” (LIFE TECHNOLOGIES CORPORATION, priority 2010, dated 2026)
